Laboratory results taken from patent US20190307818A1, “NOVEL ANTIMICROBIAL COMPOSITIONS AND METHODS OF USE” (priority 2016, published 2019).

Tests used:
[1] = test system: Wild-type P. aeruginosa pyocyanin production; assay: Pyocyanin virulence factor production; assay type: cell-based; settings: 100 μM overnight, back diluted, grown 18 hrs with inhibitor
Experimental: FIG. 6. QS inhibitors reduce the level of virulence factor production in P. aeruginosa. The ability of the small molecule inhibitors to reduce virulence factor production by monitoring pyocyanin production was assessed.
The ability of the small molecule QS inhibitors to reduce virulence factor production by monitoring production of pyocyanin as a representative virulence factor was assessed. Wild-type P. aeruginosa was incubated with the indicated molecules at 100 μM overnight, back diluted, and grown for 18 hrs in the presence of QS inhibitor.
By varying the concentration of QS inhibitors, dose dependence curves were generated.

[2] = molecular target: T1, LasR (Pseudomonas aeruginosa, UniProt P25084); assay: Two plasmid E. coli LasR reporter (luciferase); assay type: cell-based, P. aeruginosa; settings: for remaining activity at 100 µM: read-out: Percent Activity (LasR reporter); for Percent Activity (LasR reporter): inhibitor at 100 μM, relative to wild-type (100%)
T1 construct: expressed in transfected cells; host or cells: E. coli TOP10 carrying pBAD-A 6xHIS-lasR and pCS26 plasB-luxCDABE
Excerpt: (§1) A two plasmid E. coli reporter system was constructed, in which LasR or RhlR was expressed under an arabinose inducible promoter (e.g., LasR or RhlR was cloned into a pBAD-A vector and expressed upon addition of arabinose) in the presence of a LasR-dependent or RhlR-dependent promoter fused to luciferase (e.g., cloned into a pCS26 vector). Upon the addition of arabinose and in the presence of AI, LasR or RhlR were expressed, formed a complex with the cognate AI, underwent dimerization, and activated transcription of the reporter construct. All potential inhibitors were tested at 100 μM. The percent activity was reported relative to wild-type (100%).
(§2) A sample experimental protocol for the RhlR reporter (see, e.g., Table 5A2) or for the LasR reporter (see, e.g., Table 5A1).
(§3) A clean plate was filled with water, 70% ethanol, LB, and primed with cultured cells to ensure that initial dispensing led to the appropriate volume of cells being added to the wells. 20 μL of this solution was dispensed into appropriate wells in a 384-well plate that contained small molecule antagonists. 20 μL of this solution was dispensed into wells intended for a positive control that contain only DMSO. To the culture that was saved for negative control, arabinose was added to 0.1%. An equal volume of DMSO was added to the culture, relative to the amount of AI added to the other culture. 20 μL of culture was dispensed into wells intended for a negative control that contained only DMSO and no small molecule QS inhibitors. Plates were incubated at 30° C. in the plate shaker. Plates were read using a 384 LUM/OD 600 setting on the plate reader after 4 hours of induction.
For data analysis, the average and standard deviation for each of the control groups were determined. In a screen, for each data point, the number of standard deviations from the mean was determined to determine if the inhibitor was a “hit”. In a dose response curve, for each data point, the percent inhibition was determined: 1−(X/M), where X=single data point and M=is the mean of the AI only control group. The dose response curve was then plotted as a function of % inhibition (y) v. [inhibitor] on a log scale (x).

[3] = test system: LasR and RhlR; assay: Receptor specific reporter assays for LasR and RhlR activity (stated in words); assay type: cell-based, P. aeruginosa
Excerpt: wherein R may be H or OH, and two or more of the R substituents of a given compound are OH; R′ is H or OH; and R″ is H or OH. […] A variety of compounds were obtained and tested for activity (e.g., inhibition of receptor specific reporter assays for LasR and RhlR activity).
as §1

[4] = molecular target: T1, LasR; assay: 10-point autoinducer dose response on LasR reporter with QS inhibitor (competition); assay type: cell-based, P. aeruginosa; settings: inhibitor at 100 μM; increasing concentrations of AI
Experimental: FIG. 4. QS inhibitors bind non-competitively to LasR. A 10-point dose response curve with increasing concentrations of autoinducer 3-O—C12-HSL (AI) was generated for a variety of QS small molecule inhibitors. In this figure, curve C12 (filled circle) corresponds to the absence of inhibitor. […] Instead, the inhibitors bind elsewhere on LasR to prevent LasR-dependent transcription.
Using known molecular biology techniques, assays were performed to determine whether binding of the small molecule QS inhibitors and the AIs occurred by a competitive or by another inhibitory mechanism (see, e.g., FIG. 4).
Thus, a 10-point dose response curve with concentrations of AI ranging from 10 pM to 5 nM was generated for a variety of QS small molecule inhibitors. Curve C12 (dotted filled line) corresponds to the absence of inhibitor. […] Instead, the inhibitors bind elsewhere on LasR to prevent LasR-dependent transcription.

[5] = molecular target: T2, RhlR (Pseudomonas aeruginosa, UniProt P54292); assay: Two plasmid E. coli RhlR reporter (luciferase); assay type: cell-based, P. aeruginosa; settings: for remaining activity at 100 µM: read-out: Percent Activity (RhlR reporter); for Percent Activity (RhlR reporter): inhibitor at 100 μM, relative to wild-type (100%)
T2 construct: expressed in transfected cells; host or cells: E. coli TOP10 carrying pBAD-A 6xHIS-rhlR and pCS26 prhlA-luxCDABE
Excerpt: as §1, §2
For the RhlR reporter, strains were re-streaked on LB+appropriate antibiotic before each experiment and grown overnight at 37° C. Three colonies were picked and a 3 mL overnight culture in LB+appropriate antibiotic was started. The culture was grown overnight at 37° C. The overnight culture was back-diluted 1:1000 into fresh LB+appropriate antibiotic in an appropriate volume, depending on the number of plates being screened. Each well in a 384 well plate received about 20 μL of culture. An additional 25 mL of culture was reserved for priming the plate filler. The culture was grown at 37° C. until OD600˜0.5, which took about 4 hrs. A 384-well plate was prepared. Stock concentrations of molecules (e.g., small molecule inhibitors) were 10 mM.
For a 10-point dose response for the RhlR reporter, a 1:3 dilution of molecule:DMSO (333 μL of stock molecule, 667 μL of DMSO using a 1 mL pipetteman) was used for accurate dispensing by the robot dispenser. Upon a prompt by the software, the appropriate concentration of each molecule was added. Each well was normalized with a DMSO standard to bring the total % volume of DMSO up to 1% using the robot. Plates were set aside with dispensed drugs until the cells were ready. Once the cells reached an OD600 of 0.5, an appropriate amount of cell culture was dispensed for screening into an Erlenmeyer flask. (Extra culture was saved for a negative control.) Arabinose was added to 0.1% final concentration (1:1000 dilution from stock solution), and AI was added to 10 μM (ED75) from a 10 mM stock. The components of the flask were mixed together by swirling. As mentioned previously, other concentrations of AIs may be suitable, e.g., the concentrations may be in the range of 2 uM to 100 uM, from 10 uM to 100 uM or from 2 uM to 10 uM. In some embodiments, 2 nM of 3-O—C12-HSL (for LasR) and 10 uM of C4-HSL (for RhlR) were used.
as §3
For data analysis, the average and standard deviation for each of the control groups were determined. In a screen, for each data point, the number of standard deviations from the mean was determined to determine if the inhibitor was a “hit”. In a dose response curve, for each data point, the percent inhibition was determined: 1−(X/M), where X=single data point and M=is the mean of the AI only control group. […]

T1 sequence (P25084 whole entry): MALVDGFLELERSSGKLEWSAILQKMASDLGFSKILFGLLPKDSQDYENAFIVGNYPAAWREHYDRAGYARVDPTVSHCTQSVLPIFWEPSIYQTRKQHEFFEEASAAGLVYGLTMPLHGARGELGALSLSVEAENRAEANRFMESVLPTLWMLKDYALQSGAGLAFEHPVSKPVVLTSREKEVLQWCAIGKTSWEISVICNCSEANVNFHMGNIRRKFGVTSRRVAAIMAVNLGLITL
T2 sequence (P54292 whole entry): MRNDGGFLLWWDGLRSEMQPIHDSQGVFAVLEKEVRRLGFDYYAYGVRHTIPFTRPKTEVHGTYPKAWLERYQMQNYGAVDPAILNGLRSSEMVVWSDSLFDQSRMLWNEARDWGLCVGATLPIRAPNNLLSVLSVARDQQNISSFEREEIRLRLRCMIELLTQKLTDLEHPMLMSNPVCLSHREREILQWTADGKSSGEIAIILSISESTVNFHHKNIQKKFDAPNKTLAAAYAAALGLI

Structure (SMILES) | pyocyanin production [1] | remaining activity at 100 µM [2] [%] | activity (inhibition of receptor specific reporter assays for LasR and RhlR activity) [3] | competition with autoinducer 3-O—C12-HSL for LasR [4] | remaining activity at 100 µM [5] [%] | Percent Activity (LasR reporter) [2] | Percent Activity (RhlR reporter) [5]
O=C(CCc1ccc(O)cc1)c1c(O)cc(O)cc1O [Molecule 1, Phloretin] | inhibit pyocyanin to varying degrees | 24.1 | inhibit both LasR and RhlR | did not compete | 68.4 |  | 
O=c1cc(-c2ccccc2)oc2cc(O)cc(O)c12 [Molecule 3, Chrysin] | inhibit pyocyanin to varying degrees | 53.1 | inhibit both LasR and RhlR | did not compete | 39.2 |  | 
O=C1CC(c2ccc(O)cc2)Oc2cc(O)cc(O)c21 (stereo not shown) [Molecule 4, Narigenin] | inhibit pyocyanin to varying degrees |  | active |  |  |  | 
O=C1CC(c2ccc(O)cc2)Oc2cc(O)cc(O)c21 (stereo not shown) [Molecule 4] |  | 63.3 |  |  | 60.5 |  | 
O=c1cc(-c2ccc(O)cc2)oc2cc(O)cc(O)c12 [Molecule 43] |  | 82.4 |  |  | 84.5 |  | 
O=c1cc(-c2ccccc2)oc2cccc(O)c12 [Molecule 44] |  |  |  |  |  | Inactive | Inactive
O=c1cc(-c2ccccc2)oc2cc(O)ccc12 [Molecule 45] |  |  |  |  |  | Inactive | Inactive
O=c1c(O)c(-c2ccc(O)c(O)c2)oc2cc(O)cc(O)c12 [Molecule 48, Quercetin] | inhibit pyocyanin to varying degrees | 44.4 | inhibit both LasR and RhlR | did not compete | 40.2 |  | 
COc1cc(OC)c2c(=O)cc(-c3ccccc3)oc2c1 [Molecule 49] |  |  |  |  |  | Inactive | Inactive
O=c1cc(-c2ccccc2)oc2ccc(O)cc12 [Molecule 50] |  |  |  |  |  | Inactive | Inactive
COc1cc(OC)c2c(=O)cc(-c3ccc(O)cc3)oc2c1 [Molecule 52] |  |  |  |  |  | Inactive | Inactive
O=c1cc(-c2ccccc2)oc2ccc(O)c(O)c12 [Molecule 53] |  | 16.7 |  |  | 31.8 |  | 
O=c1cc(-c2ccccc2)oc2c(O)c(O)ccc12 [Molecule 54] |  | 60.3 |  |  | 54.5 |  | 
O=c1c(O)c(-c2ccccc2)oc2cc(O)cc(O)c12 [Molecule 55] |  |  |  |  |  | Inactive | Inactive
